Test system: 422866-222-R5-J1-PDC spheroid viability
Test: Anticancer human tumor 422866-222-R5-J1-PDC patient-derived pancreatic adenocarcinoma cell line growth inhibition [CLK]
Settings: spheroids with HUVEC and MSC; for IC50: curve of first compound; for viability, T/C: stronger effect = lower value
Description: A high-throughput screen of multi-cell type tumor spheroids was designed to identify active combinations of […] and targeted small molecules. Complex spheroids include a stromal component modeled by human endothelial cells (HUVEC) and fibroblasts modeled by human mesenchymal stem cells (MSCs). The concentration ranges selected for each drug and investigational agent were based upon clinically achievable concentrations if the clinical Cmax of the agent was known.
Compounds. The drugs and investigational agents: cirtuvivint (SM08502; NSC835563), CC-671 (NSC850746), vemurafenib (NSC761431), tapotoclax (NSC804041), sotorasib (NSC818433), adagrasib (NSC831453), MRTX-1133 (NSC836407), BAY2416964 (NSC825713), copanlisib (NSC816437), inavolisib (NSC800729), abemaciclib (NSC768073), osimertinib (NSC779217), entinostat (NSC756642), eltanexor (KPT-8602, NSC794443), venetoclax (NSC766270), ceralasertib (NSC777638), bortezomib (NSC756655), olaparib (NSC753686), talazoparib (NSC767125), alisertib (NSC759677), peposertib (NSC802822), gemcitabine (NSC613327), 5-fluorouracil (NSC19893), SN-38 (NSC673596), oxaliplatin (NSC266046), paclitaxel (NSC125973), and doxorubicin (NSC123127), were obtained from the National Cancer Institute (NCI) Developmental Therapeutics Program Chemical Repository. The FDA-approved anticancer drug set is available from the Developmental Therapeutics Program at https://dtp.cancer.gov/organization/dscb/obtaining/available plates.htm. […] The stock solutions were prepared in dimethyl sulfoxide (DMSO, Sigma-Aldrich, St. Louis, MO, cat. D2650), except for the platinum complexes which were prepared in saline (Quality Biological, Gaithersburg, MD, cat. 114-055-101), at 800-fold the tested concentration and stored at -70 degrees C prior to their use. All drugs and investigational agents were tested over a range starting from a high concentration at or near the clinical Cmax and decreasing in half-log increments. If the clinical Cmax for an agent had not been determined, the highest concentration tested was 10 microM.
Cell Culture. All cells were maintained in an incubator at 37 degrees C and 5% CO2 with 95% humidity. The PDC lines were cultured according to standard operating procedures established by the NCI PDMR. Briefly, all PDCs were thawed and cultured in Matrigel-coated flasks prepared with a working solution of 1X Ham's F-12 nutrient mix, without supplementation (Invitrogen, Waltham, MA, cat. 11765054), 100 U/mL penicillin-streptomycin (Invitrogen, cat. 15140122), and 2.5% Matrigel (Corning Inc., Corning, NY, cat. 354248) for the first three passages. The 947758-054-R-J2-PDC line was cultured in 6B/Colon 1A media, which includes advanced DMEM/F-12 (Thermo Fisher Scientific, cat. 12634028), 10 mM HEPES (Thermo Fisher Scientific, cat. 15630080), 1X GlutaMAX supplement (Thermo Fisher Scientific, cat. 35050061), 0.1 mg/mL primocin (InvivoGen, cat. ant-pm-2), 10% defined fetal bovine serum, heat inactivated (HyClone Laboratories Inc., cat. SH30070.03HI), 1.25 mM N-Acetyl-L-cysteine (Sigma-Aldrich, cat. A9165), 10 mM nicotinamide (Sigma-Aldrich, cat. N0636), 1X B-27 supplement (Thermo Fisher Scientific, cat. 17504044), 1X N-2 supplement (Thermo Fisher Scientific, cat. 17502048), and 10 microM Y-27632 dihydrochloride (Tocris Bioscience, cat. 1254). The 876862-298-R-J1-PDC was cultured in 6E media, which includes all 6B/Colon 1A media components plus 50% L-WRN conditioned media (ATCC, cat. CRL-3276), 50 ng/mL recombinant human EGF recombinant protein (hEGF; Thermo Fisher Scientific, cat. PHG0311), 10 ng/mL recombinant human fibroblast growth factor 10 (hGFG-10; PeproTech, cat. 100-26), 1 ng/mL recombinant human fibroblast growth factor 2 (hFGF-2; PeproTech, cat. 100-18B), and 1 µM prostaglandin E2 (PGE2; Tocris, cat. 2296). The 227483-062-R1-J1-PDC line was cultured in Panc media, containing all 6E components except hFGF-2, with the addition of 500 nM SB-431542 (Selleckchem, cat. S1067) and 10 nM gastrin (Tocris, cat. 3006). […]

[1] = second compound 0.0316 µM, first compound 0.0316 µM
[2] = second compound 0.0316 µM, first compound 0.1 µM
[3] = second compound 0.0316 µM, first compound 0.316 µM
[4] = second compound 0.0316 µM, first compound 1 µM
[5] = second compound 0.1 µM, first compound 0.0316 µM
[6] = second compound 0.1 µM, first compound 0.1 µM
[7] = second compound 0.1 µM, first compound 0.316 µM
[8] = second compound 0.1 µM, first compound 1 µM
[9] = second compound 0.316 µM, first compound 0.0316 µM
[10] = second compound 0.316 µM, first compound 0.1 µM
[11] = second compound 0.316 µM, first compound 0.316 µM
[12] = second compound 0.316 µM, first compound 1 µM
[13] = second compound 1 µM, first compound 0.0316 µM
[14] = second compound 1 µM, first compound 0.1 µM
[15] = second compound 1 µM, first compound 0.316 µM
[16] = second compound 1 µM, first compound 1 µM
[17] = second compound 3.16 µM, first compound 0.0316 µM
[18] = second compound 3.16 µM, first compound 0.1 µM
[19] = second compound 3.16 µM, first compound 0.316 µM
[20] = second compound 3.16 µM, first compound 1 µM
[21] = second compound 10 µM, first compound 0.0316 µM
[22] = second compound 10 µM, first compound 0.1 µM
[23] = second compound 10 µM, first compound 0.316 µM
[24] = second compound 10 µM, first compound 1 µM
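Also: spheroids exposed to agents for seven days before readout.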

## CC(Nc1ccc2c(c1)OCCn1cc(N3C(=O)OCC3C(F)F)nc1-2)C(N)=O (centres undefined) + CN1CCN(c2cc(C(=O)Nc3cc4cc(-c5cnn(C)c5)ccc4cn3)ccn2)CC1
Second compound 0.0316 µM
  IC50: 265 nM
Second compound 0.1 µM
  IC50: 389 nM
Second compound 0.316 µM
  IC50: 307 nM
Second compound 1 µM
  IC50: < 31.6 nM
Second compound 3.16 µM
  IC50: < 31.6 nM
Second compound 10 µM
  IC50: < 31.6 nM
[1]
  viability, T/C: 81.1%
[2]
  viability, T/C: 78.1%
[3]
  viability, T/C: 44.5%
[4]
  viability, T/C: 37.3%
Second compound 0.0316 µM, first compound 3.16 µM
  viability, T/C: 34%
Second compound 0.0316 µM, first compound 10 µM
  viability, T/C: 27%
[5]
  viability, T/C: 103%
[6]
  viability, T/C: 68.3%
[7]
  viability, T/C: 55.3%
[8]
  viability, T/C: 40.5%
Second compound 0.1 µM, first compound 3.16 µM
  viability, T/C: 33.4%
Second compound 0.1 µM, first compound 10 µM
  viability, T/C: 31.8%
[9]
  viability, T/C: 88.7%
[10]
  viability, T/C: 63.1%
[11]
  viability, T/C: 50%
[12]
  viability, T/C: 42.6%
Second compound 0.316 µM, first compound 3.16 µM
  viability, T/C: 36.5%
Second compound 0.316 µM, first compound 10 µM
  viability, T/C: 34.3%
[13]
  viability, T/C: 27.5%
[14]
  viability, T/C: 29.1%
[15]
  viability, T/C: 25.9%
[16]
  viability, T/C: 22.4%
Second compound 1 µM, first compound 3.16 µM
  viability, T/C: 21.3%
Second compound 1 µM, first compound 10 µM
  viability, T/C: 18.6%
[17]
  viability, T/C: 9.59%
[18]
  viability, T/C: 11%
[19]
  viability, T/C: 11.1%
[20]
  viability, T/C: 10.5%
Second compound 3.16 µM, first compound 3.16 µM
  viability, T/C: 13.8%
Second compound 3.16 µM, first compound 10 µM
  viability, T/C: 12.3%
[21]
  viability, T/C: 2.29%
[22]
  viability, T/C: 1.76%
[23]
  viability, T/C: 2.37%
[24]
  viability, T/C: 1.83%
Second compound 10 µM, first compound 3.16 µM
  viability, T/C: 3.35%
Second compound 10 µM, first compound 10 µM
  viability, T/C: 2.02%

## COc1c(OCCCN2CCOCC2)ccc2c3n(c(=NC(=O)c4cnc(N)nc4)nc12)CCN3 + CN1CCN(c2cc(C(=O)Nc3cc4cc(-c5cnn(C)c5)ccc4cn3)ccn2)CC1
Second compound 0.0316 µM
  IC50: 22 nM
Second compound 0.1 µM
  IC50: 26.3 nM
Second compound 0.316 µM
  IC50: 22.6 nM
Second compound 1 µM
  IC50: < 3.16 nM
Second compound 3.16 µM
  IC50: < 3.16 nM
Second compound 10 µM
  IC50: < 3.16 nM
Second compound 0.0316 µM, first compound 0.00316 µM
  viability, T/C: 99.3%
Second compound 0.0316 µM, first compound 0.01 µM
  viability, T/C: 65.7%
[1]
  viability, T/C: 43.5%
[2]
  viability, T/C: 33.2%
[3]
  viability, T/C: 28.9%
[4]
  viability, T/C: 33.4%
Second compound 0.1 µM, first compound 0.00316 µM
  viability, T/C: 92.2%
Second compound 0.1 µM, first compound 0.01 µM
  viability, T/C: 73.2%
[5]
  viability, T/C: 46.9%
[6]
  viability, T/C: 31.6%
[7]
  viability, T/C: 32.2%
[8]
  viability, T/C: 34.5%
Second compound 0.316 µM, first compound 0.00316 µM
  viability, T/C: 92.8%
Second compound 0.316 µM, first compound 0.01 µM
  viability, T/C: 63%
[9]
  viability, T/C: 46.1%
[10]
  viability, T/C: 35.5%
[11]
  viability, T/C: 30.3%
[12]
  viability, T/C: 37.6%
Second compound 1 µM, first compound 0.00316 µM
  viability, T/C: 33.7%
Second compound 1 µM, first compound 0.01 µM
  viability, T/C: 33.4%
[13]
  viability, T/C: 21.6%
[14]
  viability, T/C: 25.6%
[15]
  viability, T/C: 18%
[16]
  viability, T/C: 23.8%
Second compound 3.16 µM, first compound 0.00316 µM
  viability, T/C: 9.85%
Second compound 3.16 µM, first compound 0.01 µM
  viability, T/C: 13.6%
[17]
  viability, T/C: 11.9%
[18]
  viability, T/C: 10.2%
[19]
  viability, T/C: 10.4%
[20]
  viability, T/C: 9.8%
Second compound 10 µM, first compound 0.00316 µM
  viability, T/C: 3.74%
Second compound 10 µM, first compound 0.01 µM
  viability, T/C: 4.24%
[21]
  viability, T/C: 3.81%
[22]
  viability, T/C: 1.77%
[23]
  viability, T/C: 5.18%
[24]
  viability, T/C: 3.72%
